Reference: US10869931B2, “Polyethylene glycol-modified angiogenesis inhibitor HM-1 and application thereof” (NANJING ANJI BIOLOGICAL TECHNOLOGY CO.,LTD, priority 2016, dated 2020)
Several values for one entry are separate records, joined by “and”; a condition that tells them apart may be missing. Equal entries are not always repeated.

Tests used:
mouse spleen lymphocytes = test: ConA-stimulated mouse spleen lymphocyte proliferation (MTT); format: cell-based; conditions: 20 μg/mL, ConA 5 μg/mL, 48 h
Protocol: Tris-NH4Cl was used to break the red blood cells, and the cells were allowed to stand in an ice water bath for 4 min, centrifuged (1000 rpm×5 min), the supernatant was discarded, and the cells were washed twice with sterile PBS. Finally, cells were suspended in RPMI 1640 medium (5 mL) supplemented with 10% calf serum, counted, adjusted to a cell concentration of 5×10^6/mL, and cultured in a 96-well culture plate The test group consisted of blank control group, concanavalin A (ConA) group, dexamethasone (Dex) group (0.02 mg/mL) and mPEG-HM-1 group. […] The cells were cultured in a 37° C. cell culture chamber for 48 h. After the completion of the culture, 20 μL of MTT was added to each well, and the culture was continued for 4 h. Finally, all the solutions in each well were discarded, 100 μL of DMSO was added to each well, and the mixture was shaken and detected by a microplate reader OD value at 570 nm, 5 parallels per hole.

[1] = test system: IL-1β production by mouse peritoneal macrophages; test: IL-1β production by mouse peritoneal macrophages (ELISA); format: cell-based; conditions: 20 μg/mL, 48 h
Protocol: (1) IL-1β production: mice were intraperitoneally injected with 1 mL of broth (containing 6%) starch, and three days later, the mouse peritoneal macrophages were aseptically taken, washed twice with 1640 medium, and the cell concentration was adjusted to 2×10^6 cells/mL, inject into a 24-well culture plate, 1 mL per well, incubate for 3 hours in a cell culture incubator, shake once every 30 minutes, and allow the cells to fully adhere. Then, it was washed twice with the culture solution to remove unattached cells. The blank group was added with PBS, the positive group was added with the positive drug dexamethasone (Dex), the model group was not administered, to the experimental group was added low, medium and high three concentrations of mPEG-HM-1, and the culture was continued for 48 hours after the administration, 1000 r/min. Centrifuge for 15 min. The supernatant was taken as a sample for testing activity of IL-1β.
(2) Determination of IL-1β content: using R&D mouse IL-1β enzyme-linked immunosorbent assay kit, according to the kit instructions as follows: respectively, the tested samples and different concentrations of standard products, sealed with sealing tape the reaction well and incubated at 37° C. for 90 min; the plate was washed four times; the biotinylated antibody working solution (100 μL/well) was added, and the reaction well was sealed with sealing paper, incubated at 37° c. for 60 min; the plate was washed four times; Add the enzyme conjugate working solution (100 μL/well), seal the reaction well with sealing paper, incubate at 37° C. for 30 min; wash the plate four times; add color reagent (100 μL/well), incubate at 37° C. 10-20 min, add stop solution (100 μL/well), mix and measure OD450 value.

[2] = test system: Head and neck cancer tumor cells; test: MTT proliferation inhibition, head and neck cancer cells; format: cell-based, human; parameters: concentration or dose not given beside the values; conditions: 48 h
Protocol: (§1) The activity of mPEG-HM-1 to inhibit the growth of various tumor cells was examined by MTT assay. The tumor cells were cultured to a concentration of 90% or more in a 37° C., 5% CO2 incubator and collected by trypsinization. The cells were resuspended in the culture medium and counted under a microscope to adjust the cell concentration to 2×10^4 cells/mL, the cell suspension was inoculated into a 96-well plate at 100 μL/well and incubated overnight at 37° C. in a 5% CO2 incubator. mPEG-HM-1 was diluted with the culture solution to each predetermined concentration. Docetaxel is diluted to the final concentration with the culture medium. After the cells were fully attached, each dilution was added to a 96-well plate (100 μL/well). The mPEG-HM-1 dilution was added as a drug-administered group, and docetaxel was added as a positive control group, and a culture solution without any drug was used as a negative control group. Incubate for 48 h at 37° C. in a 5% CO2 incubator. 5 mg/mL of MTT was added to a 96-well plate at 20 μL per well, and incubation was continued for 4 hours. The medium was aspirated, dissolved in 150 μL of DMSO per well, and gently mixed by shaking for 10 min. The absorbance was measured at a measurement wavelength of 570 nm and a reference wavelength of 630 nm using a microplate reader, and the rate of growth inhibition (proliferation inhibition, PI) was calculated. The formula is as follows: PI (%)=1−administration group/negative group
(§2) The test was repeated 3 times independently, and the results obtained by the test were expressed as mean±SD, and the test results are shown in Table 15 to Table 18.

Brain tumor cells = test: MTT proliferation inhibition, brain tumor cells; format: cell-based, human; parameters: concentration or dose not given beside the values; conditions: 48 h
Protocol: as §1, §2

[3] = test system: Thyroid cancer tumor cells; test: MTT proliferation inhibition, thyroid cancer cells; format: cell-based, human; parameters: concentration or dose not given beside the values; conditions: 48 h
Protocol: as §1, §2

[4] = test system: Esophageal cancer tumor cells; test: MTT proliferation inhibition, esophageal cancer cells; format: cell-based, human; parameters: concentration or dose not given beside the values; conditions: 48 h
Protocol: as §1, §2

[5] = test system: Pancreatic cancer tumor cells; test: MTT proliferation inhibition, pancreatic cancer cells; format: cell-based, human; parameters: concentration or dose not given beside the values; conditions: 48 h
Protocol: as §1, §2

Lung cancer tumor cells = test: MTT proliferation inhibition, lung cancer cells; format: cell-based, human; parameters: concentration or dose not given beside the values; conditions: 48 h
Protocol: as §1, §2

Liver cancer tumor cells = test: MTT proliferation inhibition, liver cancer cells; format: cell-based, human; parameters: concentration or dose not given beside the values; conditions: 48 h
Protocol: as §1, §2

[6] = test system: Gastric cancer tumor cells; test: MTT proliferation inhibition, gastric cancer cells; format: cell-based, human; parameters: concentration or dose not given beside the values; conditions: 48 h
Protocol: as §1, §2

[7] = test system: Breast cancer tumor cells; test: MTT proliferation inhibition, breast cancer cells; format: cell-based, human; parameters: concentration or dose not given beside the values; conditions: 48 h
Protocol: as §1, §2

[8] = test system: Kidney cancer tumor cells; test: MTT proliferation inhibition, kidney cancer cells; format: cell-based, human; parameters: concentration or dose not given beside the values; conditions: 48 h
Protocol: as §1, §2

[9] = test system: Colorectal cancer tumor cells; test: MTT proliferation inhibition, colorectal cancer cells; format: cell-based, human; parameters: concentration or dose not given beside the values; conditions: 48 h
Protocol: as §1, §2

[10] = test system: Ovarian cancer tumor cells; test: MTT proliferation inhibition, ovarian cancer cells; format: cell-based, human; parameters: concentration or dose not given beside the values; conditions: 48 h
Protocol: as §1, §2

[11] = test system: Cervical cancer tumor cells; test: MTT proliferation inhibition, cervical cancer cells; format: cell-based, human; parameters: concentration or dose not given beside the values; conditions: 48 h
Protocol: as §1, §2

[12] = test system: Uterine cancer tumor cells; test: MTT proliferation inhibition, uterine cancer cells; format: cell-based, human; parameters: concentration or dose not given beside the values; conditions: 48 h
Protocol: as §1, §2

[13] = test system: Prostate cancer tumor cells; test: MTT proliferation inhibition, prostate cancer cells; format: cell-based, human; parameters: concentration or dose not given beside the values; conditions: 48 h
Protocol: as §1, §2

[14] = test system: Bladder Cancer tumor cells; test: MTT proliferation inhibition, bladder cancer cells; format: cell-based, human; parameters: concentration or dose not given beside the values; conditions: 48 h
Protocol: as §1, §2

Melanoma tumor cells = test: MTT proliferation inhibition, melanoma cells; format: cell-based, human; parameters: concentration or dose not given beside the values; conditions: 48 h
Protocol: as §1, §2

Hemangioma tumor cells = test: MTT proliferation inhibition, hemangioma cells; format: cell-based, human; parameters: concentration or dose not given beside the values; conditions: 48 h
Protocol: as §1, §2

sarcoma tumor cells = test: MTT proliferation inhibition, sarcoma cells; format: cell-based, human; parameters: concentration or dose not given beside the values; conditions: 48 h
Protocol: as §1, §2

**Q.** For `C[C@@H]1C[C@H]2[C@@H]3CCC4=CC(=O)C=C[C@]4(C)[C@@]3(F)[C@@H](O)C[C@]2(C)[C@@]1(O)C(=O)CO` [Dex, dexamethasone, reference compound], which “A570 nm/A630 nm” value (mouse spleen lymphocytes) is on record?
**A.** 0.3809 ± 0.1036 and 0.3832 ± 0.1042 and 0.3715 ± 0.1266 and 0.3905 ± 0.1094

**Q.** And the “Inhibition Rate of spleen lymphocyte proliferation” value (mouse spleen lymphocytes)?
**A.** 44.66% and 45.92% and 43.72%

**Q.** What about the inhibition at 20 µg/mL (mouse spleen lymphocytes; Mus musculus, Lymphocyte, read-out: Inhibition Rate of spleen lymphocyte proliferation) of the same molecule?
**A.** 44.8%

**Q.** And the IL-1β [1]?
**A.** 361.03 ± 18.27 pg/mL and 368.23 ± 18.27 pg/mL and 361.45 ± 19.17 pg/mL and 359.92 ± 19.17 pg/mL

**Q.** And the “Inhibition Rate of IL-1β production” value [1]?
**A.** 60.24% and 60.58% and 60.97%

**Q.** And the inhibition at 20 µg/mL ([1]; Mus musculus, Peritoneal macrophage, read-out: Inhibition Rate of IL-1β production)?
**A.** 61.5%

**Q.** `CC(=O)O[C@@]12CO[C@@H]1C[C@H](O)[C@@]1(C)C(=O)[C@H](O)C3=C(C)[C@@H](OC(=O)[C@H](O)[C@@H](NC(=O)OC(C)(C)C)c4ccccc4)C[C@@](O)([C@@H](OC(=O)c4ccccc4)[C@H]21)C3(C)C` [Docetaxel, reference compound] was tested. Which “rate of growth inhibition” value [2] did it give?
**A.** 49.23 ± 10.01%

**Q.** And the “rate of growth inhibition” value (Brain tumor cells)?
**A.** 59.23 ± 16.21%

**Q.** What about the “rate of growth inhibition” value [3] of the same molecule?
**A.** 56.21 ± 14.28%

**Q.** What about the “rate of growth inhibition” value [4] of the same molecule?
**A.** 60.18 ± 17.02%

**Q.** And the “rate of growth inhibition” value [5]?
**A.** 71.13 ± 20.13%

**Q.** What about the “rate of growth inhibition” value (Lung cancer tumor cells) of the same molecule?
**A.** 68.23 ± 18.32%

**Q.** What about the “rate of growth inhibition” value (Liver cancer tumor cells) of the same molecule?
**A.** 66.70 ± 17.25%

**Q.** And the “rate of growth inhibition” value [6]?
**A.** 77.34 ± 22.18%

**Q.** What about the “rate of growth inhibition” value [7] of the same molecule?
**A.** 65.31 ± 21.44%

**Q.** What about the “rate of growth inhibition” value [8] of the same molecule?
**A.** 72.93 ± 18.31%

**Q.** And the “rate of growth inhibition” value [9]?
**A.** 74.59 ± 20.33%

**Q.** And the “rate of growth inhibition” value [10]?
**A.** 85.12 ± 19.39%

**Q.** What about the “rate of growth inhibition” value [11] of the same molecule?
**A.** 80.21 ± 19.54%

**Q.** And the “rate of growth inhibition” value [12]?
**A.** 80.25 ± 22.18%

**Q.** What about the “rate of growth inhibition” value [13] of the same molecule?
**A.** 45.62 ± 14.03%

**Q.** What about the “rate of growth inhibition” value [14] of the same molecule?
**A.** 46.72 ± 13.65%

**Q.** And the “rate of growth inhibition” value (Melanoma tumor cells)?
**A.** 83.49 ± 23.27%

**Q.** And the “rate of growth inhibition” value (Hemangioma tumor cells)?
**A.** 56.92 ± 16.76%

**Q.** And the “rate of growth inhibition” value (sarcoma tumor cells)?
**A.** 51.31 ± 10.49%
